Experimental findings from patent US20260199481A1, “PROTEIN DEGRADATION TARGETING CHIMERA COMPOUND, COMPOSITION THEREOF, AND USE THEREOF” (TSINGHUA UNIVERSITY, priority 2022, published 2026) are described below.

Assay [1] concerns MCF-7 cells. Briefly: Annexin V/PI double staining for apoptosis detection. The class given is cell-based. The conditions noted are these: FIG. 6. From the text:
The surface of normal cells consists of lipids distributed asymmetrically on the inner and outer leaflets of the plasma membrane. One of them, phosphatidylserine (PS), is normally distributed only on the inner leaflet of the plasma membrane, and is therefore exposed only to the cytoplasm. However, when cells undergo apoptosis, PS is exposed on the outer leaflets of the plasma membrane. Annexin V is a phospholipid-binding protein capable of binding to PS. Therefore, fluorescently labeled Annexin V can be used to detect PS exposed to the outer leaflets of early apoptotic cells. By co-staining with propidium iodide (PI), Annexin V-PI can distinguish normal living cells, early apoptotic cells, and late apoptotic cells. Cell treatment: MCF-7 cells in the logarithmic growth phase were taken for the experiment. Cells were inoculated in six-well plates at a density of 5.0×10^5 cells/per well and incubated at 37° C. for 24 hours. Cells were treated with Example PROTAC drug AS2 and PROTAC prodrug A1 for 3 h, followed by X-ray irradiation, and cells continued to be cultured until 48 h after completion of irradiation. Cell collection: Collect the culture medium in a 1.5 mL centrifuge tube for spare. […] After incubation for 15 min at room temperature away from light, fluorescence detection was carried out by flow cytometry.

The target in assay [2] is T1, BRD4 (Homo sapiens, UniProt O60885).
T1 construct: endogenous in cells; host or cells: MCF-7
The assay is described as follows: Protein degradation activity, Western blotting of BRD4 in MCF-7 cells. It is filed as cell-based. The method, then: Cell treatment: MCF-7 cells in the logarithmic growth phase were taken for the experiment. Cells were inoculated in six-well plates at a density of 5.0×10^5 cells/per well and incubated at 37° C. for 24 hours. […]
Whole cell protein extraction: After completion of drug treatment, the culture medium was discarded, and the cells were washed 3 times with pre-cooled PBS. Cells were scraped off using a cell scraper, and the resulting solution was carefully aspirated and centrifuged at 300 g for 5 min at 4° C. to obtain cells, which were washed with PBS, resuspended, and centrifuged under the same conditions.
Cell lysis: Cells were washed with pre-cooled PBS and lysed in pre-cooled lysis buffer (containing 1% protease and phosphatase inhibitor) for 30 min, and cells were vigorously vortexed several times during lysis. After lysis was completed, the cells were centrifuged at 11,000 g for 15 min at 4° C., and the supernatant was collected as whole cell protein.
Protein denaturation: protein concentration was measured by Bradford assay. Proteins were diluted using 4× Protein Sampling Buffer. Subsequently, the proteins were denatured by heating in a metal bath at 100° C. for 15 min.
Protein Immunoblotting Assay (Western Blotting, WB) was Performed to Quantify BRD4 Protein:
1) Protein electrophoresis: proteins were separated in 4-12% or 4-20% Bis-Tris SDS-PAGE gels. The appropriate volume of the above cell whole protein extract was added to the lanes of the above SDS-PAGE gel. Turn on the power and electrophoresis at 120 V for 15 minutes, then adjust the voltage to 180 V and continue electrophoresis until the loading buffer reaches the lowest end of the gel.
(2) Membrane transfer: After electrophoresis, remove the gel, cut a PVDF membrane […] of the appropriate size and activate the membrane with anhydrous methanol, and install the membrane transfer device in the following order from the negative pole to the positive pole: sponge cushion, gel, PVDF membrane, sponge cushion. After installing the membrane transfer device, place it in the corresponding membrane transfer tank, check the liquid level of the solution required for membrane transfer, turn on the power, and complete the membrane transfer after 3 transfer cycles.
3) Blocking: Place the membrane in QuickBlock™ Western Blocking Buffer and shake it for 20 minutes at room temperature.
4) Primary antibody incubation: After the blocking, discard the blocking solution, add the primary antibody diluted to the appropriate concentration, and gently shake the membrane overnight at 4° C. After completing the incubation, wash the membrane 4 times with 1×TBST for 5 min/time.
(5) Secondary antibody incubation: Add secondary antibody diluted to the appropriate concentration and gently shake the PVDF membrane for 1 hour at room temperature. After incubation, the membrane was washed 4 times with 1×TBST for 5 min/time.
6) Developing: Prepare the ECL developing solution before developing. Lay the PVDF membrane flat on a clean plastic wrap, add the developer solution to the membrane, and let it stand for 1 minute away from light. Subsequently, the PVDF membrane was imaged on a gel system.
For orientation: Immunoblotting shows a protein as a band on a membrane.

Assay [3] relates to MCF-7 cell line. The assay is described as follows: In vivo anti-tumor activity, MCF-7 tumor model. The settings on record: 10 mg/kg subcutaneous injection. Set-up: species or system BALB/c nude mice. How it is done:
To investigate the in vivo activation and antitumor activity of the PROTAC compound AS2 and X-ray-responsive PROTAC compound A1, we performed in vivo antitumor activity studies. The MCF-7 cell line was selected, and experiments were performed in BALB/c nude mice. Experimental animals: BALB/c nude mice (female; 6-8 weeks old) were all purchased from Beijing Vital River Laboratory Animal Technology Co., Ltd and housed in pathogen-free conditions with standard temperature and humidity at the Laboratory Animal Resources Center of Tsinghua University. All animal experiments were approved by the Animal Ethics Committee of Tsinghua University. Tumor model establishment: MCF-7 cells in logarithmic growth phase were taken, and 0.25% trypsin was added to digest the cells after washing the cells for 3 times with pre-cooled PBS buffer. The digested cells were centrifuged at 1000 rpm/min for 5 min, the precipitate was discarded, and the cells were resuspended with pre-cooled PBS and carefully blown to make a single-cell solution. After the cells were counted by a counter, the cell density was adjusted to 1×10^7 cells/mL, and 10 mL was taken into a centrifuge tube and stored on ice. Before inoculation of cancer cells, nude mice were gently wiped under the skin of the right axilla with a paper towel sprayed with 75% alcohol. A 1 mL disposable syringe was used to aspirate 200 μL of cell suspension, and the air in the needle was removed, and a single subcutaneous injection was carried out by puncturing about 1 cm forward from the needle inlet site. The needle was withdrawn slowly to avoid fluid leakage. Observe the tumor growth status daily. Drug administration: When the tumor volume reached 120 mm^3, the tumor-bearing mice were randomly grouped. Six groups were set up, namely PBS, PROTAC drug AS2, PROTAC prodrug A1, PBS+X-ray irradiation, PROTAC drug AS2+X-ray irradiation, and PROTAC prodrug A1+X-ray irradiation. Each drug was dispersed in the following solution: 1.25% DMSO+20% PEG+5% Tween 80+73.75% dd H2O; administered dose: 10 mg/kg; subcutaneous injection. X-ray irradiation was performed 3 hours after drug injection. The irradiation dose was 5 Gy. Tumor size and body weight were monitored every other day. Tumor volume was calculated using the formula: tumor volume=length×width^2/2. After 16 days of monitoring, mice in each group were euthanized, and tumors and major organs were collected.

Assay [4] concerns MCF-7 cells. The assay is described as follows: In vitro anti-tumor effect, CellTiter 96 viability assay. The class given is cell-based. The settings on record: Homo sapiens, MCF7, light or radiation study. The method, then: Experimental Procedure: MCF-7 cells in the logarithmic growth phase were used for the experiment. The cells were seeded at 5000 cells per well in 96-well plates and incubated for 24 hours at 37° C. The cells were treated with Example compounds A1-D3 for 3 h. Subsequently, the irradiated group was irradiated with 10-30 Gy of X-rays, and the cells were continued to be incubated until 72 h after completion of irradiation. At the end of drug treatment, 20 μL of CellTiter 96° solution was added to each well. The well plates were incubated in an incubator for 2-4 hours, and then the absorbance was measured using a plate reader. Data were analyzed with GraphPad Prism software to obtain the IC50 values of each test compound.

Like-named read-outs stand apart in the source and are kept apart here.

Broadly, the IC50 is the midpoint of a concentration-inhibition curve. For `Cc1ncsc1-c1ccc([C@H](C)NC(=O)[C@@H]2C[C@@H](OC(=O)OCc3c(F)c(F)c(N=[N+]=[N-])c(F)c3F)CN2C(=O)[C@H](NC(=O)COCCOCCOCCNC(=O)C[C@@H]2N=C(c3ccc(Cl)cc3)c3c(sc(C)c3C)-n3c(C)nnc32)C(C)(C)C)cc1` [Compound A1], the “ability to induce apoptosis” value in assay [1] (X-rays and compound together, 48 h after irradiation) is “significantly elevated early apoptotic and late apoptotic cells”; in assay [1] (without X-ray irradiation) it was “comparable to that of control DMSO”. Moreover, the BRD4 degradation in assay [2] (co-treated with X-ray irradiation, 10 nM prodrug, FIG. 5) is over 50%. Further, the “degradation activity on BRD4 with X-ray irradiation” value in assay [2] (co-treated with X-ray irradiation, FIG. 5) is recorded as “significantly degraded”. The “degradation activity on BRD4 prior to activation” value in assay [2] (no irradiation, 0-300 nM, FIG. 4) is reported as “failed to degrade BRD4”. Also, the “tumor growth (tumor volume)” value in assay [3] (X-ray 5 Gy 3 hours after drug injection) is “enhance the efficacy of radiation therapy”; in assay [3] (no irradiation, compared with PBS group), “failed to inhibit the tumor growth”. Besides, the IC50 in assay [4] (compound 3 h, then X-rays 10 Gy or 30 Gy, 72 h after irradiation, read-out: Irradiation with 10 Gy or 30 Gy IC50) turned out to be 122 nM; in assay [4] (no irradiation, 72 h incubation, read-out: Radiation-free IC50) it was 1020 nM.
